We go through 3 compounds from patent publication US7312206B2, “Sterol derivatives, liposomes comprising sterol derivatives and method for loading liposomes with active substances” (Novosom AG, priority 2001, dated 2007).

The subject of one series is HeLa cells. In words: Cytotoxicity, MTT test. In kind it is cell-based. As to the method: The toxic effect of the substances was investigated using the MTT test. To this end, HeLa cells were seeded at a density of 2×10^4 cells per cavity of a 96-well titer plate and cultured for two days. Liposomes of varying composition (see Table) were added to the cells at a concentration of 0.5 mM and incubated with these cells for 24 hours. Subsequently, the MTT test was performed.

Series [1] in a line: Chelating of metal ions (zeta potential of liposomes). In kind it is physicochemical. The following applies: compound in the liposome membrane. Here is the method:
Liposomes are produced as in Example 4. 40 μl of these liposomes are suspended in 7 ml of buffer (10 mM potassium acetate, 10 mM HEPES, pH 4.2 or pH 7.5). Subsequently, the metal ions are added with the concentrations as indicated, and the zeta potential of the liposomes is measured.

Turning to `CC(C)CCC[C@@H](C)[C@H]1CC[C@H]2[C@@H]3CC=C4C[C@@H](OC(=O)NCCN(C)C)CC[C@]4(C)[C@H]3CC[C@]12C` [DC-Chol, N,N-Dimethyl (2-aminoethyl) carbamoylcholesterol], the “toxic effect in the MTT test (in words)” value with HeLa cells is “significant cytotoxic effect”.
Take `CCCCCCCC/C=C\CCCCCCCC(=O)OCC(C[N+](C)(C)C)OC(=O)CCCCCCC/C=C\CCCCCCCC` (stereo not shown) [DOTAP]: in the series with HeLa cells, the “toxic effect in the MTT test (in words)” value is on record as “significant cytotoxic effect”.
“Histaminylethaneamine-cholesterol hemisuccinate [His-Chol]”: in the series with HeLa cells, the “toxic effect in the MTT test (in words)” value is given as “lesser toxic effects”. Also, the “chelating of metal ions by liposomes including the compound (in words)” value in series [1] was “capable of chelating metal ions”.
